Where only a bound is given, the exact number is not on record here.

As a reminder, the melting point is the temperature of the solid-liquid transition. Take `COc1ccc(C(=O)Cc2c(Cl)cncc2Cl)c2c1CC1(CCCC1)O2`: the melting point fell in the range of 70 to 72 °C.
Turning to `CN1N(c2ccccc2)C(=O)C(F)(F)C1(C)O` (stereo unspecified), the melting point was 132 to 134 °C.
In turn, `FC(F)(F)c1c[nH]cc1-c1cccc(Cl)c1Cl` came in with a melting point of 63 to 65 °C.
The result for `Cc1oc(-c2ccc(F)cc2)cc1C(=O)Nc1cccc(CSCC(=O)O)c1` reads 198 to 199 °C.
In turn, `Cc1oc(-c2ccco2)nc1COc1cc(CCl)ccn1` yielded a melting point of 107 to 108 °C.
The result for `O=C1c2cc(NCCO)ccc2OC12CC2` reads 74 to 75 °C; that for `COc1cc2c(ccn2S(C)(=O)=O)cc1Br`, 126 to 129 °C; that for `CCC1(CC)c2cc(-c3nc4ccccc4s3)ccc2-c2ccc(N(c3cccc(OC)c3)c3cccc(OC)c3)cc21`, 178 to 180 °C.
The same measure for `CCC(C)(C)Nc1c(N(Cc2ccc(C#N)cc2Cl)C(C)=O)c(=O)c1=O`: 150 to 151 °C; for `Cc1sc(S(N)(=O)=S)cc1C(C)O` (stereo unspecified): 100 to 102 °C.
The result for `O=C(O)CCCNC(=O)c1ccc(Cl)cc1O` reads 131 to 133 °C; that for `COc1ccc(-c2nc3c(F)cccc3s2)cc1OC`, 129 °C; that for `O=C(CCN1CCN(c2ccc3c(c2)OCO3)CC1)c1csc2ccc(F)cc12`, 84 to 86 °C.
Consider `CNC(=O)c1cccc(NC(=O)Cc2cccc(F)c2)c1`, for which the melting point is 147 to 148 °C.
The result for `COC(=O)c1ccc2c(c1)Sc1ccccc1NC2=O` reads 255 to 257 °C; that for `COc1c(F)c(F)cc2c(=O)c(C(=O)O)cn(C3CC3)c12`, 185 to 186 °C; that for `CCC(C)(C)c1cc(-c2cccc(CC3SC(N4CCCC4)=NC3=O)c2)ccc1O` (stereo unspecified), 216 to 219 °C.
With `CC1(c2ccc(N)c(C(=O)c3ccccc3)c2)OCCO1`, the melting point was in the range of 108 to 111 °C.
The same measure for `CC(=O)Oc1ccc2cc(-c3ccc(C(=O)O)cc3)ccc2c1`: 254 to 256 °C; for `CN(C)C1CCc2c(c3ccccc3n2C)C1` (stereo unspecified): more than 300 °C; for `CCCOc1nc2cccc(C(=O)OCC)c2n1Cc1ccc(-c2ccccc2-c2nnn[nH]2)cc1`: 157 to 159 °C.
Compound `O=C1c2ccccc2C(=O)N1c1ccc(Cl)cn1` came in with a melting point of 153 to 155 °C.
Compound `CC(=O)NCc1ccc(CN2CCN(c3ccc(F)cc3NC(C)=O)CC2)cc1` yielded a melting point of 148 to 150 °C.
The same measure for `N#CCCNC(=O)c1cccc(-c2cccc3oc(Cc4cccc(C(F)(F)F)c4)nc23)c1`: 117 to 118 °C.
As for `O=C(CCC(=O)N1CCCCC1c1ccccc1)c1ccc2c(c1)CCN(C(=O)C(F)(F)F)CC2` (stereo unspecified), the melting point lay in the range of 132 to 133 °C.
Regarding `CC(C)(C(=O)COc1cccc2ccccc12)C1OCCO1`, the melting point turned out to be 69 °C.
The result for `O=[N+]([O-])c1ccc(-n2cncn2)cc1` reads 198 °C.
The compound `COc1ccc(-c2noc3ccsc23)cc1` yielded a melting point of 93 to 94 °C.
Compound `CC(=O)OCCn1cc(-c2ccccc2)[nH]c1=O` displayed a melting point of 86 to 88 °C.
The result for `Cc1c(NC(=O)c2ccc(-c3ccc4c(c3)OCCO4)cc2)ccc2cc(CN3CCCC3)cnc12` reads 187 to 188 °C; that for `COc1ccc(Nc2cncc(-c3cccc(NC(=O)c4ccccc4)c3)c2)cc1`, 135 to 140 °C.
In turn, `O=c1ccn(CCO)c(Cc2cccc(F)c2)c1O` had a melting point of 235 to 242 °C.
Compound `COc1cc2c(cc1OC)CN(CCCc1ccc(NC(=O)c3cnc4ccccc4c3)cc1)CC2` came in with a melting point of 184 to 185 °C.
For the compound `COc1ccc(CC(S)C(N)=O)cc1C(=O)NCc1ccc(C(F)(F)F)cc1` (stereo unspecified), the melting point was 159 to 161 °C.
The compound `Cc1nnc(-c2ccc3ncn(-c4ccc(OC(F)(F)F)c(Cl)c4)c3c2)o1` returned a melting point of 211 to 212 °C.
The same measure for `CCOC(=O)Cc1csc(-c2cc3cccc(N(C)S(=O)(=O)c4cccs4)c3[nH]2)n1`: 117 to 118 °C.

Source of the values: a melting point compilation (Tetko et al.; mined from patent text by program, amines drawn as free bases though some values may be those of a salt).
